# Columns and labels:
# Assay in all cases: relative viability (nuclei count vs DMSO), 5 days (fraction); higher = more cells survive
# [1] = compound: COC1=CC=C(C=C1)CN2C=CC3=C2C=C(C=C3)C(=O)NO + COc1cc2c(Oc3ccc(NC(=O)C4(C(=O)Nc5ccc(F)cc5)CC4)cc3F)ccnc2cc1OCCCN1CCOCC1 [Foretinib] (partner 0.25 µM)
# How it was run: (§1)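 For relative viability, nuclei counts in treated wells were divided by those in vehicle wells. Lung cancer cell lines had been pin-tool dosed in 1536-well plates the day after seeding and cultured for 5 days, then fixed and stained in one step (final 0.05% Triton X-100, 1% formaldehyde, 1 ug/ml Hoechst) and imaged at 4×. Doses were one drug alone or a fixed anchor-drug dose plus five library-drug doses (not always all listed) in √10 steps, and values are duplicate-plate medians.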
# [2] = compound: C[C@]1(c2nc3c(C(N)=O)cccc3[nH]2)CCCN1 [Veliparib] + COc1cccc2cc(-c3nc([C@H]4CC[C@H](C(=O)O)CC4)n4ncnc(N)c34)[nH]c12 [OSI-027] (partner 0.5 µM)
# How it was run: as §1
# [3] = compound: C[C@]1(c2nc3c(C(N)=O)cccc3[nH]2)CCCN1 [Veliparib] + CS(=O)(=O)CCNCc1ccc(-c2ccc3ncnc(Nc4ccc(OCc5cccc(F)c5)c(Cl)c4)c3c2)o1 [Lapatinib] (partner 2 µM)
# How it was run: as §1
# [4] = compound: C[C@]1(c2nc3c(C(N)=O)cccc3[nH]2)CCCN1 [Veliparib] + Nc1nc2[nH]cc(CCc3ccc(C(=O)N[C@@H](CCC(=O)O)C(=O)O)cc3)c2c(=O)[nH]1 [Pemetrexed] (partner 0.2 µM)
# How it was run: as §1
Cell Line,relative viability ([1]; first compound 0.08 µM),relative viability ([1]; first compound 0.253 µM),relative viability ([1]; first compound 0.8 µM),relative viability ([1]; first compound 2.53 µM),relative viability ([1]; first compound 8 µM),relative viability ([2]; first compound 0.02 µM),relative viability ([2]; first compound 0.06325 µM),relative viability ([2]; first compound 0.2 µM),relative viability ([2]; first compound 0.6325 µM),relative viability ([2]; first compound 2 µM),relative viability ([3]; first compound 0.02 µM),relative viability ([3]; first compound 0.06325 µM),relative viability ([3]; first compound 0.2 µM),relative viability ([3]; first compound 0.6325 µM),relative viability ([3]; first compound 2 µM),relative viability ([4]; first compound 0.02 µM),relative viability ([4]; first compound 0.2 µM),relative viability ([4]; first compound 0.6325 µM),relative viability ([4]; first compound 2 µM),relative viability ([4]; first compound 0.06325 µM)
PC-3 [JPC-3],1,1.04,1.09,1.08,0.962,0.773,0.74,0.813,0.755,0.755,0.422,0.397,0.454,0.476,0.477,1.01,1.33,1.28,1.08,–
PC-14,0.701,0.917,0.991,1.04,0.996,0.292,0.774,0.82,0.743,0.866,0.279,0.367,0.323,0.28,0.315,–,0.168,0.143,0.134,0.13
RERF-LC-KJ,0.639,0.862,0.915,0.947,0.917,0.39,0.455,0.634,0.538,0.57,0.839,0.82,0.853,0.813,0.854,0.43,0.505,0.462,0.464,0.454
SK-LU-1,0.756,0.766,0.799,0.86,0.74,0.388,0.316,0.381,0.307,0.343,0.868,0.835,0.966,0.823,1.02,0.963,1.15,0.92,0.981,1.03
SK-MES-1,1.17,0.929,0.927,0.98,0.927,0.618,0.527,0.686,0.588,0.638,0.5,0.413,0.438,0.473,0.473,1,0.946,0.901,0.995,0.901
UMC-11,–,1.21,1.02,1.05,1,0.508,0.471,0.472,0.469,0.415,0.893,1,0.841,1.09,1.07,0.931,0.878,0.804,0.759,0.749
